Results on 15 molecules are retold here after ChEMBL document CHEMBL1139811 (Bioorg Med Chem Lett, 2007).

The target of this assay is T1, Mycobacterial beta-ketoacyl-[acyl-carrier-protein] synthase III (Mycobacterium tuberculosis, UniProt P9WNG3).
T1 sequence (P9WNG3 whole entry): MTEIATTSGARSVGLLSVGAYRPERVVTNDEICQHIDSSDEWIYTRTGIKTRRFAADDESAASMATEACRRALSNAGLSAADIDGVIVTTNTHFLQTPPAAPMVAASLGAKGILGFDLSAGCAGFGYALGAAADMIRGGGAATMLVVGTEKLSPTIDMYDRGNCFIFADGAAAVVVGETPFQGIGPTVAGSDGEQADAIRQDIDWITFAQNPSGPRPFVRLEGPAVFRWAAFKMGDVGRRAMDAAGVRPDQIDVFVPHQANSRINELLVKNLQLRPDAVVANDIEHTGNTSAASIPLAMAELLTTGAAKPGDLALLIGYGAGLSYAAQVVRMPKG
Kind of assay: Inhibition of Mycobacterium tuberculosis FabH.
For orientation: IC50 means the midpoint of a concentration-inhibition curve. Read a low IC50 as inhibition by little substance. In the case of `CC1=C(O)C(C)(Cc2ccc(-c3ccc(C)s3)cc2)SC1=O` (stereo not given), the IC50 stood at 86 µM.

For `CC(=O)c1ccc(-c2ccc(CC3(C)SC(=O)C(C)=C3O)cc2)s1` (stereo not given), 200 µM corresponded to half-maximal inhibition (IC50).

`CC(=O)c1ccc(-c2ccc(CC3(C)SC(=O)C(C)=C3O)cc2)cc1` (stereo not given): the IC50 was 54 µM.

The molecule `CC1=C(O)C(C)(Cc2ccc(-c3ccc(Cl)cc3)cc2)SC1=O` (stereo not given) came in with an IC50 of 130 µM.

As to `CC1=C(O)C(C)(Cc2ccc(-c3cccc(Cl)c3)cc2)SC1=O` (stereo not given), the IC50 turned out to be 156 µM.

As for `CC1=C(O)C(C)(Cc2ccc(-c3cc(F)cc(F)c3)cc2)SC1=O` (stereo not given), the IC50 was determined as 135 µM.

For the molecule `CC1=C(O)C(C)(Cc2ccc(-c3ccc(-c4ccccc4)cc3)cc2)SC1=O` (stereo not given), half-maximal inhibition (IC50) was put at 68 µM.

Regarding `CC1=C(O)C(C)(Cc2ccc(-c3ccc(C(=O)O)cc3)cc2)SC1=O` (stereo not given), it took 7 µM to reach half-maximal inhibition (IC50).

In turn, `CC1=C(O)C(C)(Cc2ccc(-c3ccc(F)c(F)c3)cc2)SC1=O` (stereo not given) showed an IC50 of 207 µM.

For `COC(=O)c1ccc(-c2ccc(CC3(C)SC(=O)C(C)=C3O)cc2)cc1` (stereo not given), the IC50 is 3 µM.

For `CC1=C(O)C(C)(Cc2ccc(C(=O)c3ccccc3)cc2)SC1=O` (stereo not given), the IC50 was 283 µM.

Molecule `CC1=C(O)C(C)(Cc2ccc(Oc3ccccc3)cc2)SC1=O` (stereo not given) gave an IC50 of 15 µM.

`CC1=C(O)C(C)(Cc2ccc(-c3ccc(C(N)=O)cc3)cc2)SC1=O` (stereo not given): the IC50 amounted to 4 µM.

`CC1=C(O)C(C)(Cc2ccc(-c3ccc(F)cc3)cc2)SC1=O` (stereo not given) registered an IC50 of 105 µM.

Take `CC(=O)c1cccc(-c2ccc(CC3(C)SC(=O)C(C)=C3O)cc2)c1` (stereo not given): the IC50 came to 150 µM.
